Experimental data: patent US6140317A, “Pyrrolopyrimidines and processes for their preparation” (Novartis AG, priority 1996, dated 2000)

How the values were obtained:
v-abl kinase = v-abl kinase (Abelson murine leukemia virus, UniProt P00521); test: Inhibition of the v-abl kinase ([Val5]-angiotensin II and [gamma-32P]-ATP as substrates); format: biochemical; conditions: v-abl tyrosine kinase
Experimental: The above-mentioned inhibition of the v-abl tyrosine kinase is determined in accordance with the methods of N. Lydon et at, Oncogene Research 5, 161-173 (1990) and J. F. Geissler et al., Cancer Research 52, 4492-4498 (1992), with [Val^5 ]-angiotensin II and [γ -^32 P]-ATP being used as substrates.
In accordance with the procedure mentioned above (Oncogene Research 5, 161-173 (1990) and Cancer Research 52, 4492-4498 (1992), the following IC50 values are obtained: […]

[1] = biological target: T1, EGF-receptor-specific tyrosine protein kinase (EGF-R-PTK; EGF-R ICD) (Homo sapiens, UniProt P00533); test: Inhibition of the EGF-receptor-specific tyrosine kinase (recombinant intracellular domain of the EGF receptor); format: biochemical
T1 construct: recombinant intracellular domain of the EGF receptor
T1 sequence (P00533 669-1210 limits assumed): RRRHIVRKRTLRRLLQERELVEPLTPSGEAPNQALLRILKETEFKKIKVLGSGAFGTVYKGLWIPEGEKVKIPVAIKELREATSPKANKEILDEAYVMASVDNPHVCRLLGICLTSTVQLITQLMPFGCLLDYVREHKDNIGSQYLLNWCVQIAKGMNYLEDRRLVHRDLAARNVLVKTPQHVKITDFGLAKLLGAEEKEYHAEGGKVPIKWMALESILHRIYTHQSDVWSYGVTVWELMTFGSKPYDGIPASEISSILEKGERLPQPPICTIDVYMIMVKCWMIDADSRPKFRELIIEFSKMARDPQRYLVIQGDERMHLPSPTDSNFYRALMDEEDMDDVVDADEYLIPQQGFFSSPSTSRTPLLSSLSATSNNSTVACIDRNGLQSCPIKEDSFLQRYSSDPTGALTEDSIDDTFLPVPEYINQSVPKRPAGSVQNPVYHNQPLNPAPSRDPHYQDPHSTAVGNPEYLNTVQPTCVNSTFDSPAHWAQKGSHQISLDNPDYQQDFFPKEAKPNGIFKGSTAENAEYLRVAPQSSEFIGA
Experimental: The compounds of formula I inhibit the enzyme activity in comparison with the control without inhibitor by 50% (IC50), for example in a concentration of from 0.001 to 20 μM, especially from 0.01 to 5 μM.
Inhibition of the EGF-receptor-specific Tyrosine Kinase
In accordance with the method mentioned above and using the recombinant intracellular domain of the EGF receptor (Europ. J. Biochem. 207, 265-275 (1992)), the following IC50 values are obtained: […]

BALB/MK cells = test: Inhibition of the growth of BALB/MK (mouse keratinocyte) cells in vitro, methylene blue staining; format: cell-based; conditions: 72 h, incubated for three days
Experimental: In a known test method (see Meyer et al., Int. J. Cancer 43, 851 (1989)) the inhibitory action of the compounds of formula I is determined briefly as follows: BALB/MK cells (10 000/microtiter plate well) are transferred to 96-well microtiter plates. The test compounds (dissolved in DMSO) are added in a series of concentrations (dilution series), so that the final concentration of DMSO is no greater than 1% (v/v). After the addition, the plates are incubated for three days, during which time the control cultures without test compound are able to undergo at least three cell division cycles. The growth of the MK cells is measured by means of methylene blue staining: after the incubation the cells are fixed with glutaraldehyde, washed with water and stained with 0.05% methylene blue. After a washing step, the stain is eluted with 3% HCl and the optical density per well of the microtitre plate is measured using a Titertek multiskan at 665 nm. IC50 values are determined by means of a computer-aided system using the formula
IC50 =[(ODtest -ODstart)/(ODcontrol
The IC50 value in those experiments is defined as that concentration of the test compound in question which results in a 50% decrease in the number of cells in comparison with the control without inhibitor.
The growth of BALB/MK cells in the presence of compounds of formula I is tested in accordance with the procedure described above. […]

Chain of v-abl kinase (P00521 whole entry): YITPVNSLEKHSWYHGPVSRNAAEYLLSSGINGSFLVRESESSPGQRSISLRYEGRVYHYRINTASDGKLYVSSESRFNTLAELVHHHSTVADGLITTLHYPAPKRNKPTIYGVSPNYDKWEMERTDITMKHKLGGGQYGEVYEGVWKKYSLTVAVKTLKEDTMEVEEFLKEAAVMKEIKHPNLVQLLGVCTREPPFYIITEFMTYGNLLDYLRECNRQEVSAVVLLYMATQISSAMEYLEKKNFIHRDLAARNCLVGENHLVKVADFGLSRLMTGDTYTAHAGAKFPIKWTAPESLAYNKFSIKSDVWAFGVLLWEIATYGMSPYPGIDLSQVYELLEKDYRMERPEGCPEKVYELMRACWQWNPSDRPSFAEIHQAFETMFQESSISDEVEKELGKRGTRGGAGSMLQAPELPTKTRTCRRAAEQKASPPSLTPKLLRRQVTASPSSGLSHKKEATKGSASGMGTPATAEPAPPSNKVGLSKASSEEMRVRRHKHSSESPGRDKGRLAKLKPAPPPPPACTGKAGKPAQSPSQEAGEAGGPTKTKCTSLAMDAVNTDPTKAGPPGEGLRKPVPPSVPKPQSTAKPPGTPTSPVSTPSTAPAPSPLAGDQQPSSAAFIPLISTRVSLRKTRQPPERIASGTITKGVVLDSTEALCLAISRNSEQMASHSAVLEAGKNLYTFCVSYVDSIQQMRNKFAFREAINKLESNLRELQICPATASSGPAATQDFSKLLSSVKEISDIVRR

Row | Compound | IC50 (v-abl kinase) [nM] | IC50 [1] [nM] | IC50 (BALB/MK cells) [nM]
1 | Nc1ccc(-c2cc3c(N4CCCc5ccccc54)ncnc3[nH]2)cc1 [Example 11, 4-(1,2,3,4-Tetrahydroquinolin-1-yl)-6-(4amino-phenyl)-7H-pyrrolo[2.3-d]-pyrimidine] | 2 | 26 | 760
2 | Nc1ccc(-c2cc3c(N4CCc5ccccc54)ncnc3[nH]2)cc1 [Example 7, 4-(2,3-Dihydroindol-1-yl)-6-(4-amino-phenyl)-7H-pyrrolo[2,3-d]pyrimidine] | 78 | 210 | 15800
3 | Cc1[nH]c2ncnc(N3CCCc4ccccc43)c2c1C [Example 5, 4-(1,2,3,4-Tetrahydroquinolin-1-yl)-5,6-dimethyl-7H-pyrrolo[2,3-d]pyrimidine] | – | 2690 | –
4 | Cc1[nH]c2ncnc(N3CCc4ccccc43)c2c1C [Example 1, 4-(2,3-Dihydroindol-1-yl)-5,6-dimethyl-7H-pyrrolo[2,3-d]pyrimidine] | – | 1560 | –
